# Laboratory results published in ChEMBL document CHEMBL1201862, “PubChem BioAssay data set” (2004).
#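 Five compound concentrations were applied to cells in 96-well plates for 48 hours; endpoints were derived by simple linear interpolation of the resulting dose-response curve. GI50 marks 50% less growth.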 The source made the active and inactive calls. Rule as the data show it: active = GI50 up to about 1.1 µM and inactive = higher.
# Tests used:
# Experiment in all cases: DTP human tumour cell line panel, 48 h
# SW-620 = system: SW-620
# HL-60 = system: HL-60
# DLD-1 = system: DLD-1
# SNB-75 = system: SNB-75
# SR = system: SR
# HCT-15 = system: HCT-15
# SK-MEL-5 = system: SK-MEL-5
# SNB-78 = system: SNB-78
# HCT-116 = system: HCT-116
# IGROV-1 = system: IGROV-1
# HT-29 = system: HT-29
# HOP-62 = system: HOP-62
# RPMI-8226 = system: RPMI-8226
# OVCAR-3 = system: OVCAR-3
# OVCAR-8 = system: OVCAR-8
# HOP-18 = system: HOP-18
# DU-145 = system: DU-145
# T47D = system: T47D
# NCI/ADR-RES = system: NCI/ADR-RES
# MDA-MB-231 = system: MDA-MB-231
SMILES,GI50 (SW-620),GI50 (HL-60),GI50 (DLD-1),GI50 (SNB-75),GI50 (SR),GI50 (HCT-15),GI50 (SK-MEL-5),GI50 (SNB-78),GI50 (HCT-116),GI50 (IGROV-1),GI50 (HT-29),GI50 (HOP-62),GI50 (RPMI-8226),GI50 (OVCAR-3),GI50 (OVCAR-8),GI50 (HOP-18),GI50 (DU-145),GI50 (T47D),GI50 (NCI/ADR-RES),GI50 (MDA-MB-231)
C=C1CCCC2OC(OC)CCC12 (stereo not drawn),> 100 µM (inactive),> 100 µM (inactive),> 100 µM (inactive),> 100 µM (inactive),> 100 µM (inactive),> 100 µM,> 100 µM (inactive),> 100 µM (inactive),> 100 µM (inactive),> 100 µM (inactive),> 100 µM (inactive),> 100 µM (inactive),> 100 µM (inactive),> 100 µM (inactive),> 100 µM (inactive),> 100 µM (inactive),,,,
Cc1c2cnccc2c(C)c2c1c1ccccc1n2CCCN,0.0787 µM (active),,0.116 µM (active),0.736 µM (active),< 0.01 µM (active),0.169 µM,0.755 µM (active),0.76 µM (active),0.0929 µM (active),0.506 µM (active),0.206 µM (active),0.637 µM (active),0.153 µM (active),,0.259 µM (active),0.492 µM (active),0.104 µM (active),0.526 µM (active),0.299 µM (active),0.171 µM (active)
NC(=O)c1csc(C2OC(CO)C(O)C2O)n1 (stereo not drawn),13.8 µM (inactive),8.95 µM (inactive),8.57 µM (inactive),,> 31.6 µM (inactive),4.14 µM,96.8 µM (inactive),92.7 µM (inactive),22.6 µM (inactive),42.4 µM (inactive),40.3 µM (inactive),90.8 µM (inactive),150 µM (inactive),19.6 µM (inactive),26.6 µM (inactive),1170 µM (inactive),179 µM (inactive),2790 µM (inactive),57 µM (inactive),84.9 µM (inactive)
